Like-named read-outs stand apart in the source and are kept apart here.
Columns and labels:
in vivo [1] = conditions: for Kp uu: rat
Experimental: The CSF samples collected from cisterna magna in rats were stored at –80°C until analysis by liquid chromatography-tandem mass spectrometry (LC-MS/MS). Before performing the LC-MS/MS analysis, these samples were thawed on ice and mixed with three volumes of acetonitrile. The acetonitrile mixtures were vortexed and centrifuged, and the supernatant was collected. After dilution with mobile phase A (a mixture of 10 mM ammonium formate and formic acid at 100:0.2 (v/v)), the supernatant was injected into the LC-MS/MS system.
(§1) To perform correlation analyses between the observed Kp,uu,brain and Kp,uu,CSF, and the model-based prediction of Kp,uu,brain and Kp,uu,CSF, data from literature information were integrated into the internally obtained data for these assessments (Supplemental Table 2) ([17],[22]–[24],[27]–[33]). When only the total concentrations in plasma, CSF, and brain were available, the total concentration ratio in plasma to CSF or brain (Kp,CSF or Kp,brain, respectively) was estimated, followed by calculation of Kp,uu,CSF or Kp,uu,brain based on Eqs.

BCRP = biological target: T1, BCRP (Homo sapiens, UniProt Q9UNQ0); assay: in vitro; conditions: dog, pH 7.4
T1 sequence (Q9UNQ0 1-655): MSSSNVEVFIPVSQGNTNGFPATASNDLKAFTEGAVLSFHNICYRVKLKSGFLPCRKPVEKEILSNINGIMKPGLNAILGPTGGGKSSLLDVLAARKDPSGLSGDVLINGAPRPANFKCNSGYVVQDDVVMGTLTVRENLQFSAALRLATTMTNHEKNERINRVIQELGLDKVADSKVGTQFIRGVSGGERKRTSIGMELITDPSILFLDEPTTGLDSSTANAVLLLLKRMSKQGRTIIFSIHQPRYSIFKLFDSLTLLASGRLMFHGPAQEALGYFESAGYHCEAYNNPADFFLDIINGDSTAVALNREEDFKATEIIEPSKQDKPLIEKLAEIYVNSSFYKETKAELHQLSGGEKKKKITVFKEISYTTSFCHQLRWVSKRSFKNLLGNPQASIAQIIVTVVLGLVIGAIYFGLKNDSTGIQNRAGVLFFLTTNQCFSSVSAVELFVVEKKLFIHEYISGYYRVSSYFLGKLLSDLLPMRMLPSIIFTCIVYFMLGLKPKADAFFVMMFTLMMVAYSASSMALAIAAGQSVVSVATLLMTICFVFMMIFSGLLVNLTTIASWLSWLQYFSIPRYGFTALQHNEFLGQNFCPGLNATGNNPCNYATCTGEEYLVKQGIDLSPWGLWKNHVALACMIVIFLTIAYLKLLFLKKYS
Experimental: (§2) To the compounds available internally, in vitro efflux ratios for MDR1 and BCRP were determined by the following procedure (Supplemental Table 2). Test compound stock solutions in dimethyl sulfoxide (DMSO) were diluted in transport buffer (Hanks’ balanced salt solution (HBSS) with 10 mM HEPES, pH 7.4) to a concentration of 1 μM (DMSO < 1%) and applied to the apical or basolateral side of a cell monolayer derived from Madin-Darby canine kidney (MDCK)-MDR1 and MDCK-BCRP cells. Permeation of the test compounds from apical to basolateral (A to B) direction or B to A direction was measured in duplicate. The plate was incubated for 1 h in a CO2 incubator at 37±1°C with 5% CO2 at saturated humidity without shaking. In addition, the efflux ratio of each compound was also determined. Test and reference compounds were quantified by LC-MS/MS analysis based on the peak area ratio of analyte/internal standard.
(§3) The apparent permeability coefficient Papp (cm/s) was calculated by using Eq. 1: 1 Papp=dCr/dt×Vr/A×C0 where dCr/dt is the cumulative concentration of the compound in the receiver chamber as a function of time (μM/s); Vr is the volume of the solution in the receiver chamber (0.075 mL on the apical side, 0.25 mL on the basolateral side); A is the surface area for transport, i.e., 0.0804 cm^2 for the area of the monolayer; and C0 is the initial concentration (μM) in the donor chamber.
(§4) The efflux ratio was calculated using Eq. 2: 2 Efflux ratio=Papp,BtoA/Papp,AtoB

MDR1 = MDR1 (Homo sapiens, UniProt P08183); assay: in vitro; conditions: dog, MDCK-MDR1, pH 7.4
Experimental: as §2, §3, §4

[2] = cited from earlier work
[3] = cited from earlier work; remark: listed apart in the source
[4] = cited from earlier work; for Kp,uu,brain Human: *3 ref Summerfield et al. (25)
in vivo [5] = conditions: for Kp uu at 6 h: cynomolgus monkey, in vivo; for Kp,uu,CSF Monkey: lumbar CSF; for Kp,uu,CSF Monkey / Kp,uu,brain Monkey: *1 data internally obtained
Experimental: Monkey experiments were conducted internally or at the Drug Safety Research Laboratories in Shin Nippon Biomedical Laboratories via consignment to Axcelead Drug Discovery Partners. […] Detailed dosage regimen for each compound is summarized in Supplemental Table 3. […] Each cassette was assigned to a separate group of monkeys. The vehicle was saline or a mixture of dimethylacetamide and 1,3-butanediol (1:1, v/v). At the end of the 6-h infusion or 1 h after intravenous bolus administration, the monkeys were anesthetized, and whole blood, CSF, and whole brain were collected. Blood was collected using the anticoagulant, heparin sodium, and immediately centrifuged; the plasma was transferred to polypropylene tubes. Then, ketamine hydrochloride (50 mg/mL; 0.2 mL/kg; 10 mg/kg) was intramuscularly administered. CSF was collected after lumbar puncture using a spinal needle (22–25G) and a syringe pre-wetted with 10% CHAPS solution to prevent adsorption of compounds to all the equipment during pretreatment. CSF samples were immediately centrifuged, and the supernatant layers were transferred to polypropylene tubes. […] After collecting the cerebellum, hippocampus, and cerebral cortex from the whole brain, these were washed with cold saline, weighed, and homogenized immediately in 4 volumes of ice-cold 100 mmol/L sodium phosphate buffer. All samples were stored at –80°C until analysis by LC-MS/MS. Each sample (50 μL) was mixed with the working solution (the mixture of dimethyl sulfoxide and acetonitrile (2:8, v/v)), and protein was precipitated by the addition of 150 μL acetonitrile containing the internal standards (5 ng/mL alprenolol and diclofenac). After centrifugation at 5,250 rpm and 4°C for 5 min, the supernatant (150 μL) was transferred to a polypropylene 96-well plate (Corning; Corning, NY, USA) and completely evaporated under a gentle stream of N2. The residue was reconstituted in dilution solution (mobile phase A/B (7:3, v/v)), and the supernatant was analyzed by LC-MS/MS.
Each sample (50 μL) was mixed with the working solution (the mixture of dimethyl sulfoxide and acetonitrile (2:8, v/v)), and the protein was precipitated by adding 150 μL acetonitrile containing internal standards (5 ng/mL alprenolol and diclofenac). After centrifugation at 5250 rpm and 4°C for 5 min, the supernatant (150 μL) was transferred to a polypropylene 96-well plate (Corning) and completely evaporated under a gentle stream of N2. The residue was reconstituted in mobile phase A/B (7:3, v/v)), and the supernatant was analyzed by LC-MS/MS. API5000 and QTRAP5500 (AB SCIEX, Framingham, MA, USA) equipped with Ultra-Fast Liquid Chromatography (Shimadzu, Kyoto, Japan) were used for determination of drug concentrations. Reversed-phase chromatography was performed using Shim-pack XR ODS (2.2 μm, 2.0×30 mm). Mobile phase A consisted of 10 mM ammonium formate with 0.2% formic acid, and mobile phase B contained acetonitrile with 0.2% formic acid. […] The mass spectrometer was operated in the positive ionization mode with multiple reaction monitoring (MRM). The MRM parameters (Q1 ion, Q3 ion, DP, EP, CE, and CXP) for monitoring the compounds are shown in Supplemental Table 4. Data acquisition and processing were performed using Analyst 1.6.2 (AB SCIEX, Framingham, MA, USA).
as §1

[6] = monkey, *9 ref Nagaya et al. (19)
[7] = monkey, *8 ref Uchida et al. (31)

MDR1, sequence (P08183 whole entry): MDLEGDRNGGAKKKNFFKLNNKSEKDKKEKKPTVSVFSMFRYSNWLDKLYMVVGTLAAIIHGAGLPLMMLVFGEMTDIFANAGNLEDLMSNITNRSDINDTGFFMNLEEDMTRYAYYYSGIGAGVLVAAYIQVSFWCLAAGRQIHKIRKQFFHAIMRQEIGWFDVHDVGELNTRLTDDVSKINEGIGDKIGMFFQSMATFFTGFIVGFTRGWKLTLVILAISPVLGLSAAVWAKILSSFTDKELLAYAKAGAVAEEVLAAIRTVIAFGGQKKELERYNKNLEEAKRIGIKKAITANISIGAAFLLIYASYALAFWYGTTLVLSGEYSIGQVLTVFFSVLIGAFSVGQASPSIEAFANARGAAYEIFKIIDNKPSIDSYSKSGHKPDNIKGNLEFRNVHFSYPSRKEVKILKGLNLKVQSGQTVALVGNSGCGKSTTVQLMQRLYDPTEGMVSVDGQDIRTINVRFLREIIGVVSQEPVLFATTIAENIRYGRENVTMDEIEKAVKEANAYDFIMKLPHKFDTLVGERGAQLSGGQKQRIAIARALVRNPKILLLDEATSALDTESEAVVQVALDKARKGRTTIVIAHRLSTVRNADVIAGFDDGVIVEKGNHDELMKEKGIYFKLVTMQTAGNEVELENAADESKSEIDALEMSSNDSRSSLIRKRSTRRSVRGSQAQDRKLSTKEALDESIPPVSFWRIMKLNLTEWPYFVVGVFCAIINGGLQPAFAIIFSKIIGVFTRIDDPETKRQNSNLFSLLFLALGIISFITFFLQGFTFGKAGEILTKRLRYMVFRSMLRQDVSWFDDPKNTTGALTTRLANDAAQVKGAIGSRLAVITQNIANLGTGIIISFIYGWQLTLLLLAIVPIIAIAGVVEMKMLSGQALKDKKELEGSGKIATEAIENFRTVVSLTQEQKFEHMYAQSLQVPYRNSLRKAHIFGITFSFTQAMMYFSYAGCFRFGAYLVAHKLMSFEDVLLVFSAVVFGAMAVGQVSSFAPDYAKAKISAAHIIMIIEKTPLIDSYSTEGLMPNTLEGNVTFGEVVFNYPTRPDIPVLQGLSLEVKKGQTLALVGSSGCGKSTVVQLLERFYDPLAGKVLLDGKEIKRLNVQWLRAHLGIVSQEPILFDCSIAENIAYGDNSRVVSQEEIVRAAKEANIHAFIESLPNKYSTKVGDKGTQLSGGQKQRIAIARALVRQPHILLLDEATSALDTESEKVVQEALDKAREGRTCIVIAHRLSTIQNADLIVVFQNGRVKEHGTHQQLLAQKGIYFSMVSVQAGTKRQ

Compound | Kp uu (in vivo [1]; in vivo, Kp,uu,CSF Rat) | Kp uu (in vivo [1]; in vivo, Kp,uu,brain Rat) | efflux ratio at 1 h, 1 μM (BCRP) | efflux ratio at 1 h, 1 μM (MDR1) | Kp,uu,CSF Rat ([3]; *7 ref Kodaira et al. (20)) | Kp,uu,brain Rat ([3]; *7 ref Kodaira et al. (20)) | Kp,uu,CSF Monkey [2, 6] | Kp,uu,brain Monkey [2, 6] | also measured
Cc1cc(=O)n(-c2ccccc2)n1C [Antipyrine] | 0.944 | 0.857 | 1 | 0.9 |  |  |  |  | Kp,uu,CSF Monkey ([2]; cynomolgus monkey, in vivo): 1.05; Kp,uu,brain Monkey ([2]; cynomolgus monkey, in vivo): 0.857
NC(=O)N1c2ccccc2C=Cc2ccccc21 [Carbamazepine] | 0.752 | 0.8 | 0.9 | 1.3 | 0.535 | 0.771 | 1.19 | 1.27 | Kp,uu,brain Rat ([3]; *3 ref Summerfield et al. (25)): 0.39; Kp,uu,brain Human [4]: 0.55; Kp,uu,CSF Human ([4]; *10 ref Gatti et al. (28)): 1.00
Nc1ccc(S(=O)(=O)c2ccc(N)cc2)cc1 [Dapsone] |  |  | 0.8 | 1.3 |  |  |  |  | Kp uu at 6 h (in vivo [5]; Kp,uu,CSF Monkey): 0.661; Kp uu at 6 h (in vivo [5]; Kp,uu,brain Monkey): 1.02; Kp,uu,CSF Human ([4]; *11 ref Togashi et al. (29)): 1.56
C#Cc1cccc(Nc2ncnc3cc(OCCOC)c(OCCOC)cc23)c1 [Erlotinib] | 0.409 | 0.061 | 5.8 | 19.8 |  |  |  |  | Kp,uu,CSF Human ([4]; *2 ref Post et al. (24)): 0.428
O=c1c(-c2ccc(O)cc2)coc2cc(O)cc(O)c12 [Genistein] |  |  |  |  | 0.589 | 0.181 |  |  | Kp,uu,CSF Monkey (in vivo [5]): 0.0369; Kp,uu,brain Monkey (in vivo [5]): 0.0128; Kp,uu,CSF Rat (in vivo [1]; *1 data internally obtained): 1.29; Kp,uu,brain Rat (in vivo [1]; *1 data internally obtained): 0.0238
Nc1nnc(-c2cccc(Cl)c2Cl)c(N)n1 [Lamotrigine] |  |  |  |  |  |  | 0.875 | 0.678 | Kp,uu,brain Rat ([3]; *3 ref Summerfield et al. (25)): 1.40; Kp,uu,CSF Rat ([3]; *4 ref Friden et al. (21)): 0.86; Kp,uu,brain Human [4]: 2.80; Kp,uu,CSF Human ([4]; *4 ref Friden et al. (21)): 1.1
CN(C)C(=O)C(CCN1CCC(O)(c2ccc(Cl)cc2)CC1)(c1ccccc1)c1ccccc1 [Loperamide] |  |  | 0.97 | 92 | 0.038 | 0.00896 |  |  | Kp,uu,brain Rat ([3]; *3 ref Summerfield et al. (25)): 0.024; Kp,uu,CSF Rat ([3]; *4 ref Friden et al. (21)): 0.037; Kp,uu,brain Rat ([3]; *4 ref Friden et al. (21)): 0.007; Kp,uu,brain Monkey [2, 7]: 0.04
COc1cc2nc(N3CCN(C(=O)c4ccco4)CC3)nc(N)c2cc1OC [Prazosin] |  |  | 18 | 52 |  |  |  |  | Kp uu at 6 h (in vivo [5]; Kp,uu,CSF Monkey): 0.289; Kp uu at 6 h (in vivo [5]; Kp,uu,brain Monkey): 0.253
CC(C)NCC(O)COc1cccc2ccccc12 (centres unmarked) [Propranolol] |  |  | 1 |  |  |  | 0.461 | 0.947 | Kp,uu,CSF Rat ([3]; *4 ref Friden et al. (21)): 0.49; Kp,uu,CSF Human ([4]; *4 ref Friden et al. (21)): 0.42
C=C[C@H]1C[N@@]2CC[C@H]1C[C@@H]2[C@@H](O)c1ccnc2ccc(OC)cc12 [Quinidine] | 0.419 | 0.0359 | 0.9 |  | 0.0911 | 0.026 | 0.169 | 0.0658 | Kp,uu,brain Monkey [2, 7]: 0.0744
CNC(=O)c1cc(Oc2ccc(NC(=O)Nc3ccc(Cl)c(C(F)(F)F)c3)cc2)ccn1 [Sorafenib] |  |  |  |  |  |  |  |  | Kp,uu,CSF Monkey (in vivo [5]): 0.0798; Kp,uu,brain Monkey (in vivo [5]): 0.0199; Kp,uu,CSF Rat (in vivo [1]; in vivo): 2.06; Kp,uu,brain Rat (in vivo [1]; in vivo): 0.0228
